Common to all, as to format: in vivo
Test [1] deals with Diabrotica undecimpunctata. The test can be described thus: Study of the activity on Diabrotica, treated filter paper. Particulars: starting from a dose of 300 ppm; final stage larvae on treated filter paper; checked 24 hours after treatment. Here is the method:
D) Study of the Activity on Diabrotica The test insects were final stage larvae of Diabrotica undecimpunctata. A 9 cm disc of filter paper, placed at the bottom of Petri dish, was treated using 1 cm^3 of an acetone solution. After drying 15 larvae per dose were deposited and the mortality check was carried out 24 hours after treatment.

The test system of test [2] is Heliothis Virescens. Put plainly: Study on Heliothis virescens, treated artificial medium. The note with it: starting from a dose of 300 ppm; neonate larva on treated artificial medium; checked after seven days; 25° C. On the procedure:
C) Study on Heliothis Virescens The product was dissolved at the desired concentration in an acetone-water mixture (50-50). 50 μl of solution is deposited on the surface of small well containing approximately 2 grams of plant based artificial medium. One neonate larva of Heliothis virescens was then introduced into each well, which was sealed with a sheet of cellophane. The tests were kept at a temperature of 25° C., with a photoperiod of twelve hours., The mortality of the larvae was checked after seven days.

Test [3] relates to Spodoptera Littoralis. The test can be described thus: Study on Spodoptera littoralis, treated haricot leaves. Particulars: starting from a dose of 300 ppm; larvae on dipped haricot leaves; checked after seven days; 25° C. On the procedure: B) Study on Spodoptera Littoralis The product was dissolved at the desired concentration in an acetone-water mixture (50-50). Haricot leaves (Phaseolus vulgaris, var. […]) were immersed for five seconds in the solution, then left to dry in a Petri dish for one hour. Ten larvae of Spodoptera littoralis were then added to each dish. These are were at a temperature of 25° C., with a photoperiod of twelve hours. After seven days, the mortality of the larvae was checked and the foliar surface consumed is evaluated.

Test [4] has as its system Phaedon Cochleariae. Put plainly: Study on Phaedon cochleariae, treated Chinese cabbage foliar disks. Particulars: dose of 300 ppm; adults on dipped Chinese cabbage disks; checked after seven days; 25° C. Here is the method:
A) Study on Phaedon Cochleariae The product was dissolved at the desired concentration in an acetone-water mixture (50-50). Foliar disks of Chinese cabbage (Brassica pekinensis) were immersed for five seconds in the solution, then left to dry for one hour. Ten adults (a mixture of males and females) were added into a Petri dish containing a foliar disk. These were kept at a temperature of 25° C., with a photoperiod of twelve hours. After seven days, the mortality of the insects was checked and the foliar surface consumed is evaluated.

With `CC(C)C(C)NC(=O)c1ccc(Cc2ccc3cc(Cl)ccc3c2)cc1` (stereo not shown) [Product L], in test [1], the “activity (mortality)” value is given as “very good activity”. Also, in test [2], the “activity (mortality of the larvae)” value is recorded as “very good activity”.
Turning to `Cc1ccccc1NC(=O)c1ccc(CC2=Cc3cc(Br)c(Br)cc3CC2)cc1` [Product H], the “activity (mortality of the larvae)” value in test [2] is given as “very good activity”. For the same compound, in test [3], the “activity (mortality of the larvae and foliar surface consumed)” value was “very good activity”.
With `Cc1ccccc1NC(=O)c1ccc(CC2=Cc3ccc(I)cc3CC2)cc1` [Product G], the “activity (mortality of the larvae)” value in test [2] was “very good activity”. In addition, in test [3], the “activity (mortality of the larvae and foliar surface consumed)” value is listed as “very good activity”.
On to `Cc1ccccc1NC(=O)c1ccc(CC2=Cc3ccc(Cl)c(Cl)c3CC2)cc1` [Product A], for which, in test [1], the “activity (mortality)” value is “very good activity”. The “activity (mortality of the insects and foliar surface consumed)” value in test [4] is reported as “very useful activity”. In addition, the “activity (mortality of the larvae)” value in test [2] is reported as “very good activity”. The “activity (mortality of the larvae and foliar surface consumed)” value in test [3] is on record as “very good activity”.
Consider `Cc1ccccc1NC(=O)c1ccc(CC2CCc3cc(I)ccc3C2)cc1` (stereo not shown) [Product F], for which the “activity (mortality of the larvae)” value in test [2] is listed as “very good activity”. In addition, the “activity (mortality of the larvae and foliar surface consumed)” value in test [3] is on record as “very good activity”.
For `O=C(Nc1ccccc1)c1ccc(Cc2ccc3cc(Cl)c(Cl)cc3c2)cc1` [Product K], the “activity (mortality of the larvae)” value in test [2] was “very good activity”. Besides, the “activity (mortality of the larvae and foliar surface consumed)” value in test [3] is “very good activity”.
Regarding `C=C(NC(C)C(C)C)c1ccc(Cc2ccc3cc(Cl)c(Cl)cc3c2)cc1` (stereo not shown) [Product M], the “activity (mortality)” value in test [1] is listed as “very good activity”. In test [2], the “activity (mortality of the larvae)” value was “very good activity”.
On to `Cc1ccccc1NC(=O)c1ccc(Cc2ccc3cc(Br)ccc3c2)cc1` [Product D], for which the “activity (mortality of the larvae)” value in test [2] is reported as “very good activity”. For the same compound, the “activity (mortality of the larvae and foliar surface consumed)” value in test [3] is “very good activity”.
Regarding `Cc1ccccc1NC(=O)c1ccc(Cc2ccc3c(c2)CC(Br)C(Br)C3)cc1` (stereo not shown) [Product I], in test [2], the “activity (mortality of the larvae)” value is listed as “very good activity”. Further, the “activity (mortality of the larvae and foliar surface consumed)” value in test [3] was “very good activity”.
Regarding `Cc1ccccc1NC(=O)c1ccc(CC2CCc3c(ccc(Cl)c3Cl)C2F)cc1` (stereo not shown) [Product J], the “activity (mortality of the larvae)” value in test [2] is given as “very good activity”. Further, the “activity (mortality of the larvae and foliar surface consumed)” value in test [3] is reported as “very good activity”.
As for `Cc1ccccc1NC(=O)c1ccc(Cc2ccc3cc(Cl)ccc3c2)cc1` [Product B], the “activity (mortality of the larvae)” value in test [2] is reported as “very good activity”. Moreover, the “activity (mortality of the larvae and foliar surface consumed)” value in test [3] is “very good activity”.
`Cc1ccccc1NC(=O)c1ccc(CC2=Cc3ccc(Br)cc3CC2)cc1` [Product E]: the “activity (mortality of the larvae)” value in test [2] was “very good activity”. The “activity (mortality of the larvae and foliar surface consumed)” value in test [3] is listed as “very good activity”.
For the compound `Cc1ccccc1NC(=O)c1ccc(Cc2ccc3c(Br)cccc3c2)cc1` [Product C], in test [2], the “activity (mortality of the larvae)” value is “very good activity”. For the same compound, the “activity (mortality of the larvae and foliar surface consumed)” value in test [3] is on record as “very good activity”.

The record behind these values is US6555709B1, “Aromatic amides, their preparation process and their use as pesticides” (Hoechst Schering AgrEvo S.A., priority 1997, dated 2003).
